Our source for the TGI and GI50 values is PubChem BioAssay (NCI).

Test systems include HCT-15 colon; SK-OV-3 ovarian; HS 578T breast; COLO 205 colon; SR leukemia; CAKI-1 renal; EKVX NSCLC; K-562 leukemia.
Holding throughout (assay): NCI-60 cell line screen, 48 h

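Tested at 5 concentrations; 48 h exposure; 96-well plates; endpoints linearly interpolated, else capped at highest concentration. The concentration for 50% growth inhibition is given as GI50. At the TGI there is no net growth.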

With `CSc1nc(=O)n(CCC#N)nc1SC`, the TGI in the assay with HCT-15 colon is above 100 µM; in the assay on SK-OV-3 ovarian it was above 100 µM; with HS 578T breast, above 100 µM; in the assay on COLO 205 colon, 52.8 µM; in the assay on SR leukemia, above 100 µM; in the assay with CAKI-1 renal, above 100 µM. Besides, the TGI in the assay with EKVX NSCLC was above 100 µM; with K-562 leukemia it was 71.1 µM.
On to `COc1ccc(OC)c2c1[nH]c(=O)c1c3ccccc3cn21`, for which the GI50 in the assay on HCT-15 colon is 0.693 µM; with SK-OV-3 ovarian, 1.47 µM; in the assay with HS 578T breast, 2.18 µM; in the assay on COLO 205 colon, 1.2 µM; in the assay with SR leukemia it was 0.189 µM; with CAKI-1 renal it was 1.09 µM. Further, the results for the GI50 in the assay with EKVX NSCLC and in the assay with K-562 leukemia were 1.34 µM and 0.692 µM, respectively. Besides, the TGI in the assay on HCT-15 colon came to 2.42 µM; in the assay with SK-OV-3 ovarian it was 2.97 µM; in the assay with HS 578T breast it was 5.06 µM; in the assay on COLO 205 colon, 2.79 µM; with SR leukemia, 2.36 µM; in the assay on CAKI-1 renal, 2.39 µM. For the same compound, the TGI is 3.76 µM with EKVX NSCLC and 3.12 µM in the assay on K-562 leukemia.
As for `COc1cccc(C2CC(C)(O)Oc3cc4c(cc32)OCO4)c1O` (configuration not stated), the TGI with HCT-15 colon was above 72.5 µM; with SK-OV-3 ovarian, above 100 µM; in the assay on HS 578T breast it was 51.6 µM; in the assay with COLO 205 colon, 41.3 µM; in the assay on SR leukemia, above 51.7 µM; with CAKI-1 renal it was above 100 µM. The TGI was 99.4 µM in the assay on EKVX NSCLC and above 53.6 µM in the assay with K-562 leukemia.
On to `CSC1=Nc2c(c(C)c(C)n2COC(CO)CO)C2=NC(=O)C(C)N12` (configuration not stated), for which the GI50 is above 100 µM in the assay with HCT-15 colon; above 100 µM in the assay on SK-OV-3 ovarian; above 100 µM with HS 578T breast; above 100 µM in the assay on COLO 205 colon; 2.48 µM in the assay on SR leukemia; above 100 µM in the assay with CAKI-1 renal. The GI50 in the assay on EKVX NSCLC and in the assay with K-562 leukemia was above 100 µM each time. Further, the TGI with HCT-15 colon, in the assay on SK-OV-3 ovarian, in the assay with HS 578T breast, in the assay on COLO 205 colon, in the assay with SR leukemia and in the assay with CAKI-1 renal was above 100 µM each time. The TGI in the assay on EKVX NSCLC and in the assay with K-562 leukemia was above 100 µM in each case.
Consider `CCOC(=O)c1ccc(NC(=O)Oc2ccc3c(C)cc(=O)oc3c2)cc1`, for which the TGI with HCT-15 colon is above 100 µM; with SK-OV-3 ovarian it was 94.4 µM; in the assay on HS 578T breast it was 84.1 µM; with COLO 205 colon, above 100 µM; in the assay on SR leukemia it was 54.2 µM; with CAKI-1 renal, above 100 µM. The TGI was above 100 µM in the assay on EKVX NSCLC and 66.7 µM in the assay with K-562 leukemia.
On to `COc1ccc(Sc2[nH]c(C(C)=O)c3ccccc23)cc1`, for which the GI50 was 11.5 µM with HCT-15 colon; 1.79 µM in the assay on SK-OV-3 ovarian; 10.9 µM in the assay with HS 578T breast; 0.174 µM in the assay with COLO 205 colon; 1.35 µM with SR leukemia; 2.86 µM in the assay on CAKI-1 renal. Further, the GI50 with EKVX NSCLC was 8.13 µM; in the assay with K-562 leukemia it was 2.65 µM. For the same compound, the TGI was determined as 31 µM with HCT-15 colon; 10.5 µM in the assay on SK-OV-3 ovarian; 32.6 µM in the assay on HS 578T breast; 0.398 µM in the assay with COLO 205 colon; 15.2 µM in the assay with SR leukemia; 24 µM in the assay with CAKI-1 renal. For the same compound, the results for the TGI in the assay on EKVX NSCLC and with K-562 leukemia were 26 µM and 14.7 µM, respectively.
With `CC1(C)N=C(N)N=C(N)N1c1ccc(CCCCc2ccc(Cl)cc2S(=O)(=O)F)c(Cl)c1`, the GI50 in the assay on HCT-15 colon was 0.464 µM; in the assay with SK-OV-3 ovarian, 4.3 µM; with HS 578T breast, 4.05 µM; with COLO 205 colon, 0.522 µM; in the assay on SR leukemia, 0.271 µM; in the assay on CAKI-1 renal, 2.04 µM. Further, the GI50 with K-562 leukemia was 0.073 µM. The TGI with HCT-15 colon is above 51.3 µM; with SK-OV-3 ovarian it was 18.9 µM; in the assay on HS 578T breast it was 30.9 µM; in the assay on COLO 205 colon it was 2.53 µM; with SR leukemia it was 26.2 µM; with CAKI-1 renal, 18.2 µM. Further, in the assay on K-562 leukemia, the TGI turned out to be 13.8 µM.
`COC(=O)c1ccc2c(c1)nc(NC(=O)c1ccccc1)n2CCCc1ccccc1`: the GI50 was 1.89 µM with HCT-15 colon; 7.63 µM with SK-OV-3 ovarian; 30.2 µM in the assay on HS 578T breast; 3.89 µM in the assay with COLO 205 colon; 2.54 µM in the assay on SR leukemia; 3.57 µM in the assay on CAKI-1 renal. Further, the GI50 in the assay on K-562 leukemia was 3.26 µM. The TGI with HCT-15 colon, in the assay with SK-OV-3 ovarian, in the assay on HS 578T breast, with COLO 205 colon, in the assay with SR leukemia and in the assay with CAKI-1 renal was above 100 µM in each case. The compound further registered a TGI with K-562 leukemia above 100 µM.
Regarding `CCOC(=O)C1=CN(C)C=C(C(=O)OCC)C1c1cc(Br)c(OCC)c(OC)c1`, the GI50 with HCT-15 colon is above 100 µM; in the assay with SK-OV-3 ovarian it was above 100 µM; in the assay with HS 578T breast, 32.6 µM; in the assay with COLO 205 colon, 68.7 µM; in the assay on SR leukemia, above 100 µM; with CAKI-1 renal it was 53 µM. For the same compound, in the assay with K-562 leukemia, the GI50 was above 100 µM. The TGI in the assay on HCT-15 colon, in the assay on SK-OV-3 ovarian, in the assay with HS 578T breast, with COLO 205 colon, in the assay with SR leukemia and in the assay with CAKI-1 renal was above 100 µM throughout. Further, the TGI with K-562 leukemia was above 100 µM.
Consider `NC(=S)N/N=C/C(=O)O`, for which the GI50 with HCT-15 colon, in the assay on SK-OV-3 ovarian, in the assay with HS 578T breast, in the assay with COLO 205 colon, in the assay with SR leukemia and in the assay on CAKI-1 renal was above 100 µM each time. Besides, the GI50 with K-562 leukemia was 27 µM. In addition, the TGI with HCT-15 colon, in the assay on SK-OV-3 ovarian, in the assay with HS 578T breast, in the assay on COLO 205 colon, in the assay with SR leukemia and in the assay with CAKI-1 renal was above 100 µM throughout. The compound further registered a TGI in the assay on K-562 leukemia above 100 µM.
As to `CC1=C(C(=O)Nc2ccc(F)c(Cl)c2)C(c2ccccc2O)NC(=S)N1` (configuration not stated), the GI50 was 45.1 µM with HCT-15 colon; above 50 µM in the assay on SK-OV-3 ovarian; 35 µM in the assay on HS 578T breast; above 50 µM in the assay on COLO 205 colon; 34.8 µM in the assay on SR leukemia; 45.8 µM in the assay on CAKI-1 renal. The GI50 in the assay on K-562 leukemia is 22 µM. The TGI in the assay on HCT-15 colon, with SK-OV-3 ovarian, in the assay with HS 578T breast, in the assay with COLO 205 colon, with SR leukemia and in the assay with CAKI-1 renal was above 50 µM throughout. Moreover, the TGI with K-562 leukemia is above 50 µM.
